For data set [1], the system named is Neisseria meninigitidis A20049. Kind of data set: MIC, serial two-fold agar dilution, aerobic bacteria. It is filed as cell-based. In general terms: Agar dilution tests growth on a series of plates holding different concentrations.
Data set [2] concerns bacterial RNA polymerase. As to conditions: Antimicrobial Agents and Chemotherapy 1976, page 618; cited from earlier work.
Data set [3] concerns Neisseria meninigitidis A21496. Kind of data set: MIC, serial two-fold agar dilution, aerobic bacteria. It counts as cell-based. As to conditions: Nm-4, medium B: GC medium (Eiken).
In data set [4] the test system is Escherichia coli K-12 A9632. The data set is described as above. As to conditions: K12A9632.
Data set [5] deals with B. fragilis A20926. Put plainly: Localized infection with B. fragilis in mice. It is filed as in vivo.
Data set [6] concerns aerobic bacteria. Kind of data set: antibacterial activity against aerobic bacteria. It counts as cell-based. As to conditions: for activity against usual aerobic organisms: E. coli and K. pneumoniae; for susceptibility of Bacillus species, streptococci, Neisseria meningitidis, N. gonorrhoeae and Hemophilus influenzae: in vitro.
Data set [7] has as its system Klebsiella pneumoniae A9678. Put plainly: MIC, serial two-fold agar dilution, aerobic bacteria. It is filed as cell-based. As to conditions: Kp-2; medium A: Nutrient agar (Eiken).
For data set [8], the system named is two anaerobic and one aerobic organisms. Kind of data set: Bactericidal activity. It is filed as cell-based.
The test system of data set [9] is B. fragilis A20928-1. Kind of data set: Inoculum size effect on MIC. It is filed as cell-based. As to conditions: Bacteroides fragilis, A209281, read-out: MIC in GAM broth, GAM broth; inoculum […] 10^6 cell/ml.
For data set [10], the system named is S. pyogenes A20201. Kind of data set: Systemic infection with S. pyogenes in mice. It is filed as in vivo. As to conditions: po; 5 days.
Data set [11] in a line: Solubility. It is filed as physicochemical. As to conditions: lower alcohols, ethyl acetate, chloroform and benzene.
The subject of data set [12] is various aerobic and anaerobic organisms. Put plainly: Antibacterial spectrum. As to conditions: variety of anaerobic bacteria and some aerobic bacteria.
Data set [13] concerns C. perfringens A9635. It is filed as in vivo, mice. As to conditions: po; 5 days.
In data set [14] the test system is C. perfringens or S. pyogenes. It counts as in vivo, mice.
A short description of data set [15]: Stability in acidic and alkaline solution. It is filed as physicochemical. As to conditions: for stability in alkaline solution: relative to acidic.
The conditions of data set [16]: subcutaneous and oral.
[17] abbreviates: Nm-2, medium B: GC medium (Eiken), read-out: MIC.

In brackets after ≈: the same amount, converted by molar mass. Structures can show the parent of a compound that is named as a salt. Where two headings read alike, the source gives them in different places. Where only a bound is given, the exact number is not on record here.

As to `CC(/C=C/C(=O)C1=C(O)CNC1=O)=C\C(C)C1OC2(C)OC(C(=O)C3OC32C)C1C` (centres unmarked) [Tirandamycin], the MIC in data set [1] (setting [17]) is 0.8 µg/mL (≈ 1.92 µM); in [3], 0.8 µg/mL (≈ 1.92 µM); in data set [4] it was 100 µg/mL (≈ 240 µM). For the same compound, in [2], the “inhibition of bacterial RNA polymerase” value is “inhibitor of bacterial RNA polymerase”.

For `CNC(=O)C(C)C1C(O)=C(C(=O)/C=C/C(C)=C/C(C)C2OC3(C)OC(C=CC34CO4)C2C)C(=O)N1C1CCC(O)C(C)O1` (centres unmarked) [streptolydigin], in data set [2], the “inhibition of bacterial RNA polymerase” value is on record as “inhibitor of bacterial RNA polymerase in a manner similar to streptolydigin”.

For the compound `COC(=O)C1C(C)OC2(C)CC(=O)C3OC12OC(C(C)/C=C(C)/C=C/C(=O)C1=C(O)CNC1=O)C3C` (centres unmarked) [Bu-2313B (Na salt)], the mean score in data set [5] (oral, 6.3 × 5 mg/kg) is recorded as 3.4; in data set [5] (oral, 25 × 5 mg/kg) it was 3.0; in data set [5] (oral, 100 × 5 mg/kg), 2.4; in data set [5] (oral, […] 5 mg/kg), 4.0; in [5] (subcutaneous, 0.8 × 5 mg/kg), 4.0; in data set [5] (subcutaneous, 3.1 × 5 mg/kg), 3.4. The mean score in data set [5] (subcutaneous, 50 × 5 mg/kg) is listed as 2.2; in data set [5] (subcutaneous, […] 5 mg/kg), 2.8. Further, the sum of score in data set [5] (oral, 6.3 × 5 mg/kg) is 17; in [5] (oral, 25 × 5 mg/kg), 15; in data set [5] (oral, 100 × 5 mg/kg), 12; in [5] (oral, […] 5 mg/kg), 20; in [5] (subcutaneous, 0.8 × 5 mg/kg), 20; in data set [5] (subcutaneous, 3.1 × 5 mg/kg), 17. The sum of score in data set [5] (subcutaneous, 50 × 5 mg/kg) worked out at 11; in data set [5] (subcutaneous, […] 5 mg/kg) it was 14.

For `COC(=O)C1C(C)OC2(C)CC(=O)C3OC12OC(C(C)/C=C(C)/C=C/C(=O)C1=C(O)CN(C)C1=O)C3C` (centres unmarked) [Bu-2313A], in data set [6], the “activity against usual aerobic organisms” value is listed as “only moderate to weak activity”. In data set [6], the “susceptibility of Bacillus species, streptococci, Neisseria meningitidis, N. gonorrhoeae and Hemophilus influenzae” value is reported as “susceptible”. In addition, the figures for the MIC entry in data set [7], in data set [9] and in [3] were “> meningitidis”, 0.006 µg/mL (≈ 0.0116 µM) and 3.1 µg/mL (≈ 5.99 µM), respectively. Further, the “type of antibacterial action” value in data set [8] was “bacteriostatic rather than bactericidal”. In addition, the PD50 result is “NA at 25” in data set [10] and “NA at 50” in [13]. The “solubility in most organic solvents” value in data set [11] was “readily soluble”. Moreover, in data set [12], the antibacterial activity result was “exhibit antibacterial activity”. The “activity by the oral route” value in data set [14] (oral) was “inactive”. The “stability in acidic solution” value in [15] is “stable”. Further, the “stability in alkaline solution” value in [15] was “less so”.

As to `COC(=O)C1C(C)OC2(C)CC(=O)C3OC12OC(C(C)/C=C(C)/C=C/C(=O)C1=C(O)CNC1=O)C3C` (centres unmarked) [Bu-2313B], the MIC in data set [1] (setting [17]) is 0.8 µg/mL (≈ 1.59 µM). Also, in data set [6], the “activity against usual aerobic organisms” value is listed as “only moderate to weak activity”; the “susceptibility of Bacillus species, streptococci, Neisseria meningitidis, N. gonorrhoeae and Hemophilus influenzae” value is “susceptible”. Moreover, the “type of antibacterial action” value in data set [8] is recorded as “bacteriostatic rather than bactericidal”. Also, the “solubility in most organic solvents” value in data set [11] was “readily soluble”. In addition, the antibacterial activity result in data set [12] is “exhibit antibacterial activity”. In addition, 1.6 µg/mL (≈ 3.18 µM) was the least that counted as inhibitory in [3] (MIC). Also, the “protection against systemic infections” value in [14] (both subcutaneous and oral administration) is recorded as “fairly good protection”. Further, in [15], the “stability in acidic solution” value is recorded as “stable” and the “stability in alkaline solution” value is “less so”.

`Cc1ncc([N+](=O)[O-])n1CCO` [Flagyl]: the “absorption relative to Bu-2313B” value in [16] is “better absorptions than Bu-2313B”. In addition, the mean score in data set [5] (oral, 6.3 × 5 mg/kg) was 3.4; in data set [5] (oral, 25 × 5 mg/kg), 2.6; in [5] (oral, 100 × 5 mg/kg), 1.6; in [5] (oral, […] 5 mg/kg) it was 4.0; in data set [5] (subcutaneous, 0.8 × 5 mg/kg) it was 4.0; in [5] (subcutaneous, 3.1 × 5 mg/kg) it was 3.4. The mean score in [5] (subcutaneous, 50 × 5 mg/kg) worked out at 2.0; in data set [5] (subcutaneous, […] 5 mg/kg), 2.4. The sum of score stood at 17 in [5] (oral, 6.3 × 5 mg/kg); 13 in [5] (oral, 25 × 5 mg/kg); 8 in data set [5] (oral, 100 × 5 mg/kg); 20 in data set [5] (oral, […] 5 mg/kg); 20 in [5] (subcutaneous, 0.8 × 5 mg/kg); 17 in data set [5] (subcutaneous, 3.1 × 5 mg/kg). The sum of score is 10 in data set [5] (subcutaneous, 50 × 5 mg/kg) and 12 in data set [5] (subcutaneous, […] 5 mg/kg).

`CCC[C@@H]1C[C@@H](C(=O)N[C@@H]([C@H]2O[C@H](SC)[C@H](O)[C@@H](O)[C@H]2O)[C@H](C)Cl)N(C)C1` [Clindamycin] gave a minimal inhibitory concentration (MIC) in [1] of 0.05 µg/mL (≈ 0.118 µM). The mean score in [5] (oral, 6.3 × 5 mg/kg) amounted to 2.6; in data set [5] (oral, 25 × 5 mg/kg), 1.8; in data set [5] (oral, […] 5 mg/kg), 4.0; in data set [5] (subcutaneous, 0.8 × 5 mg/kg), 4.0; in [5] (subcutaneous, 3.1 × 5 mg/kg) it was 2.0; in [5] (subcutaneous, 50 × 5 mg/kg), 0.8. The compound also gave a mean score in [5] (subcutaneous, […] 5 mg/kg) of 1.4. Also, the sum of score in data set [5] (oral, 6.3 × 5 mg/kg) was found to be 13; in data set [5] (oral, 25 × 5 mg/kg), 9; in [5] (oral, 100 × 5 mg/kg), 2; in data set [5] (oral, […] 5 mg/kg) it was 20; in data set [5] (subcutaneous, 0.8 × 5 mg/kg) it was 20; in data set [5] (subcutaneous, 3.1 × 5 mg/kg) it was 10. Also, the sum of score in data set [5] (subcutaneous, 50 × 5 mg/kg) is on record as 4; in data set [5] (subcutaneous, […] 5 mg/kg), 7.

The MIC is the lowest concentration that inhibits growth of the organism.
